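Growth conditions: 96-well plates. Treatment: test compound, 48 hours, 5 concentrations. Analysis: linear interpolation between bracketing concentrations; unreached endpoints set to highest concentration. TGI: total growth inhibition.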
Key:
Assay in all cases: NCI tumour cell line growth inhibition, 48 h
UO-31 renal = test system: UO-31 renal
NCI-H522 lung = test system: NCI-H522 lung
OVCAR-4 ovarian = test system: OVCAR-4 ovarian
OVCAR-8 ovarian = test system: OVCAR-8 ovarian
T-47D breast = test system: T-47D breast
OVCAR-3 ovarian = test system: OVCAR-3 ovarian
HOP-92 NSCLC = test system: HOP-92 NSCLC
DU-145 prostate = test system: DU-145 prostate
PC-3 prostate = test system: PC-3 prostate
SN12C renal = test system: SN12C renal
HOP-62 NSCLC = test system: HOP-62 NSCLC
A549 NSCLC = test system: A549 NSCLC
HS 578T breast = test system: HS 578T breast
MDA-N = test system: MDA-N
NCI-H23 lung = test system: NCI-H23 lung
UACC-62 melanoma = test system: UACC-62 melanoma
HCT-116 colon = test system: HCT-116 colon
COLO 205 colon = test system: COLO 205 colon
A498 renal = test system: A498 renal
BT-549 breast = test system: BT-549 breast
SF-295 CNS = test system: SF-295 CNS
TK-10 renal = test system: TK-10 renal
MDA-MB-435 = test system: MDA-MB-435
OVCAR-5 ovarian = test system: OVCAR-5 ovarian
NCI/ADR-RES ovarian = test system: NCI/ADR-RES ovarian
NCI-H226 lung = test system: NCI-H226 lung
MALME-3M melanoma = test system: MALME-3M melanoma
SK-OV-3 ovarian = test system: SK-OV-3 ovarian
U251 CNS = test system: U251 CNS
SK-MEL-2 melanoma = test system: SK-MEL-2 melanoma
CCRF-CEM leukemia = test system: CCRF-CEM leukemia
SK-MEL-5 melanoma = test system: SK-MEL-5 melanoma
RXF 393 renal = test system: RXF 393 renal
LOX IMVI melanoma = test system: LOX IMVI melanoma
MDA-MB-231 breast = test system: MDA-MB-231 breast
SR leukemia = test system: SR leukemia
MOLT-4 leukemia = test system: MOLT-4 leukemia
KM12 colon = test system: KM12 colon
HT29 colon = test system: HT29 colon
IGROV1 ovarian = test system: IGROV1 ovarian
HL-60(TB) leukemia = test system: HL-60(TB) leukemia
SW-620 colon = test system: SW-620 colon
UACC-257 melanoma = test system: UACC-257 melanoma
SF-268 CNS = test system: SF-268 CNS
HCT-15 colon = test system: HCT-15 colon
M14 melanoma = test system: M14 melanoma
K-562 leukemia = test system: K-562 leukemia
CAKI-1 renal = test system: CAKI-1 renal
786-0 renal = test system: 786-0 renal
RPMI-8226 leukemia = test system: RPMI-8226 leukemia
EKVX NSCLC = test system: EKVX NSCLC
SNB-75 CNS = test system: SNB-75 CNS
SK-MEL-28 melanoma = test system: SK-MEL-28 melanoma
SNB-19 CNS = test system: SNB-19 CNS
MCF7 breast = test system: MCF7 breast
HCC-2998 colon = test system: HCC-2998 colon
NCI-H460 lung = test system: NCI-H460 lung
SF-539 CNS = test system: SF-539 CNS
ACHN renal = test system: ACHN renal

O=C1c2cccnc2S(=O)(=O)N1c1ccc(Br)cc1
TGI (UO-31 renal): > 100 µM
TGI (NCI-H522 lung): > 100 µM
TGI (OVCAR-4 ovarian): > 100 µM
TGI (OVCAR-8 ovarian): > 100 µM
TGI (T-47D breast): > 100 µM
TGI (OVCAR-3 ovarian): > 100 µM
TGI (HOP-92 NSCLC): > 100 µM
TGI (DU-145 prostate): > 100 µM
TGI (PC-3 prostate): > 100 µM
TGI (SN12C renal): > 100 µM
TGI (HOP-62 NSCLC): > 100 µM
TGI (A549 NSCLC): > 100 µM
TGI (HS 578T breast): > 100 µM
TGI (MDA-N): > 100 µM
TGI (NCI-H23 lung): > 100 µM
TGI (UACC-62 melanoma): > 100 µM
TGI (HCT-116 colon): > 100 µM
TGI (COLO 205 colon): > 100 µM
TGI (A498 renal): > 100 µM
TGI (BT-549 breast): > 100 µM
TGI (SF-295 CNS): > 100 µM
TGI (TK-10 renal): > 100 µM
TGI (MDA-MB-435): > 100 µM
TGI (OVCAR-5 ovarian): > 100 µM
TGI (NCI/ADR-RES ovarian): > 100 µM
TGI (NCI-H226 lung): > 100 µM
TGI (MALME-3M melanoma): > 100 µM
TGI (SK-OV-3 ovarian): > 100 µM
TGI (U251 CNS): > 100 µM
TGI (SK-MEL-2 melanoma): > 100 µM
TGI (CCRF-CEM leukemia): > 100 µM
TGI (SK-MEL-5 melanoma): > 100 µM
TGI (RXF 393 renal): > 100 µM
TGI (LOX IMVI melanoma): > 100 µM
TGI (MDA-MB-231 breast): > 100 µM
TGI (SR leukemia): > 100 µM
TGI (MOLT-4 leukemia): > 100 µM
TGI (KM12 colon): > 100 µM
TGI (HT29 colon): > 100 µM
TGI (IGROV1 ovarian): > 100 µM
TGI (HL-60(TB) leukemia): 28.1 µM
TGI (SW-620 colon): > 100 µM
TGI (UACC-257 melanoma): > 100 µM
TGI (SF-268 CNS): > 100 µM
TGI (HCT-15 colon): > 100 µM
TGI (M14 melanoma): > 100 µM
TGI (K-562 leukemia): > 100 µM
TGI (CAKI-1 renal): > 100 µM
TGI (786-0 renal): > 100 µM
TGI (RPMI-8226 leukemia): > 100 µM
TGI (EKVX NSCLC): > 100 µM
TGI (SNB-75 CNS): > 100 µM
TGI (SK-MEL-28 melanoma): > 100 µM
TGI (SNB-19 CNS): > 100 µM

CC1(N2CCOCC2)CC2C(=[N+]1[O-])CCC/C2=N/O (configuration not stated)
TGI (UO-31 renal): > 100 µM
TGI (NCI-H522 lung): > 100 µM
TGI (OVCAR-4 ovarian): > 100 µM
TGI (OVCAR-8 ovarian): > 100 µM
TGI (T-47D breast): > 100 µM
TGI (OVCAR-3 ovarian): > 100 µM
TGI (PC-3 prostate): > 100 µM
TGI (SN12C renal): > 100 µM
TGI (HOP-62 NSCLC): > 100 µM
TGI (MCF7 breast): > 100 µM
TGI (A549 NSCLC): > 100 µM
TGI (HS 578T breast): > 100 µM
TGI (MDA-N): > 100 µM
TGI (NCI-H23 lung): > 100 µM
TGI (UACC-62 melanoma): > 100 µM
TGI (HCT-116 colon): > 100 µM
TGI (BT-549 breast): > 100 µM
TGI (SF-295 CNS): > 100 µM
TGI (TK-10 renal): > 100 µM
TGI (MDA-MB-435): > 100 µM
TGI (OVCAR-5 ovarian): > 100 µM
TGI (NCI/ADR-RES ovarian): > 100 µM
TGI (HCC-2998 colon): > 100 µM
TGI (NCI-H226 lung): > 100 µM
TGI (MALME-3M melanoma): > 100 µM
TGI (SK-OV-3 ovarian): > 100 µM
TGI (U251 CNS): > 100 µM
TGI (SK-MEL-2 melanoma): > 100 µM
TGI (CCRF-CEM leukemia): > 100 µM
TGI (SK-MEL-5 melanoma): > 100 µM
TGI (RXF 393 renal): > 100 µM
TGI (LOX IMVI melanoma): > 100 µM
TGI (NCI-H460 lung): > 100 µM
TGI (MDA-MB-231 breast): > 100 µM
TGI (SR leukemia): > 100 µM
TGI (MOLT-4 leukemia): > 100 µM
TGI (KM12 colon): > 100 µM
TGI (HT29 colon): > 100 µM
TGI (IGROV1 ovarian): > 100 µM
TGI (SF-539 CNS): > 100 µM
TGI (SW-620 colon): > 100 µM
TGI (UACC-257 melanoma): > 100 µM
TGI (SF-268 CNS): > 100 µM
TGI (ACHN renal): > 100 µM
TGI (HCT-15 colon): > 100 µM
TGI (M14 melanoma): > 100 µM
TGI (K-562 leukemia): > 100 µM
TGI (CAKI-1 renal): > 100 µM
TGI (786-0 renal): > 100 µM
TGI (EKVX NSCLC): > 100 µM
TGI (SNB-75 CNS): > 100 µM
TGI (SK-MEL-28 melanoma): > 100 µM
TGI (SNB-19 CNS): > 100 µM

From PubChem BioAssay (NCI)
